23 compounds from patent US11370776B2, “Sulfonylureas and sulfonylthioureas as NLRP3 inhibitors” (Inflazome Limited, priority 2017, dated 2022) can be followed below.

Assay [1] addresses T1, NLRP3 (Homo sapiens, UniProt Q96P20). As to the kind of experiment: THP-1 cells pyroptosis assay. The class given is cell-based. The note with it: for IC50: 1.0 μg/ml LPS, nigericin 5 μM, pyroptosis read with resazurin; for NLRP3 inhibitory activity (in words): THP-1 pyroptosis assay. Also noted: Seed THP-1 cells (25,000 cells/well) containing 1.0 μg/ml LPS; host or cells: THP-1 cells, LPS-primed, nigericin-stimulated. As to the method: The cells were routinely passaged and grown to confluency (˜10^6 cells/ml). On the day of the experiment, THP-1 cells were harvested and resuspended into RPMI medium (without FBS). The cells were then counted and viability (>90%) checked by Trypan blue (Sigma # T8154). […] To this diluted cell solution was added LPS (Sigma # L4524) to give a 1 μg/ml Final Assay Concentration (FAC). 40 μl of the final preparation was aliquoted into each well of a 96-well plate. The plate thus prepared was used for compound screening. THP-1 Cells Pyroptosis Assay The following method step-by-step assay was followed for compound screening. • 1. […] Add 5 μl nigericin (Sigma # N7143) (FAC 5 μM) to all wells • 5. […] At the end of the incubation period, spin plates at 300×g for 3 mins and remove supernatant • 7. Then add 50 μl of resazurin (Sigma # R7017) (FAC 100 μM resazurin in RPMI medium without FBS) and incubate plates for a further 1-2 hrs at 37° C. and 5% CO2 • 8. […] IC50 data is fitted to a non-linear regression equation (log inhibitor vs response-variable slope 4-parameters) [table]
In general terms: Alamar Blue is a resazurin reagent that responds to reducing activity.

Assay [2] concerns the target T1, NLRP3. As to the kind of experiment: Human whole blood IL1β release assay. The assay is classed as cell-based. More on the design: Human whole blood in Li-heparin tubes was obtained from healthy donors; from tissue; host or cells: human whole blood from healthy donors, LPS-primed, nigericin-stimulated. As to the method: Human Whole Blood IL1β Release Assay
For systemic delivery, the ability to inhibit NLRP3 when the compounds are present within the bloodstream is of great importance. For this reason, the NLRP3 inhibitory activity of a number of compounds in human whole blood was investigated in accordance with the following protocol.
Human whole blood in Li-heparin tubes was obtained from healthy donors from a volunteer donor panel. • 1. […] Incubate for 3 hrs at 37° C., 5% CO2 • 4. Add 10 μl Nigericin (Sigma # N7143) (10 μM FAC) to all wells • 5. Incubate for 1 hr at 37° C., 5% CO2 • 6. At the end of the incubation period, spin plates at 300×g for 5 mins to pellet cells and remove 20 μl of supernatant and add to 96-well v-bottom plates for IL-1β analysis (note: these plates containing the supernatants can be stored at −80° C. to be analysed at a later date) • 7. IL-1β was measured according to the manufacturer protocol (Perkin Elmer-AlphaLisa IL-1 Kit AL220E-5000) • 8. IC50 data is fitted to a non-linear regression equation (log inhibitor vs response-variable slope 4-parameters)

The mark [3] stands for this setting: THP-1 cells, read-out: THP IC50.
The mark [4] stands for this setting: human whole blood, 1 μg/ml LPS, nigericin 10 μM, IL-1β release, read-out: HWB IC50.

Structures can show the parent of a compound that is named as a salt.

T1 sequence (Q96P20 whole entry): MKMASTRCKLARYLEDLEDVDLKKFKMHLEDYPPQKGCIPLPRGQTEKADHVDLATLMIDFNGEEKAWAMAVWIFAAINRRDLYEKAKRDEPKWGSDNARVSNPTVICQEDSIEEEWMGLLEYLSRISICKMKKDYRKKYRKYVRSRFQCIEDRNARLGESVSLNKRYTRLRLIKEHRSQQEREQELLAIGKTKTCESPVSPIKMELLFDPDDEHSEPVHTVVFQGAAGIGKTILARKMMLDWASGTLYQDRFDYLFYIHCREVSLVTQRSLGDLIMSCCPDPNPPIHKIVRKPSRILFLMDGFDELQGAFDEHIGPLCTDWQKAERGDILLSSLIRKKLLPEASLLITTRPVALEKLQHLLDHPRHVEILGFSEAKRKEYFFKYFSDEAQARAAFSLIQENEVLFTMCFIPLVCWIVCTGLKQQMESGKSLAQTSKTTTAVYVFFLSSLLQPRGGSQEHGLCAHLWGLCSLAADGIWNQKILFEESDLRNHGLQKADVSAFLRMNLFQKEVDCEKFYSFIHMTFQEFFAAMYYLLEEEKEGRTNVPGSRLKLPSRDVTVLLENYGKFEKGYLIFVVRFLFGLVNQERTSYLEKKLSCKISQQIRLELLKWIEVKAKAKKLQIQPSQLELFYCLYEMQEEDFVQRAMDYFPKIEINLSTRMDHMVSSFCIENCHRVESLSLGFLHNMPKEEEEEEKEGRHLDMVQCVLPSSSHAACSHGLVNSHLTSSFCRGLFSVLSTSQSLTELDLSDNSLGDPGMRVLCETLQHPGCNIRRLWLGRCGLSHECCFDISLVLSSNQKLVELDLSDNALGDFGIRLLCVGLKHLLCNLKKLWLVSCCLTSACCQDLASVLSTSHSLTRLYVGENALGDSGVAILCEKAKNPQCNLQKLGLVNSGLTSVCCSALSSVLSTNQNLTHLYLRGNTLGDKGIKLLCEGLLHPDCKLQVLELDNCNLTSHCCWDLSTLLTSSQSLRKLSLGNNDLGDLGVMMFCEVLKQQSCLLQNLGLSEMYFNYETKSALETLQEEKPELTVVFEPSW

What is called IC50 is the midpoint of a concentration-inhibition curve. With `COc1cc(-c2cc(F)cc(C(C)C)c2NC(=O)NS(=O)(=O)c2cc(N(C)C)cnn2)ccn1` [Example 51, 5-(Dimethylamino)-N-((4-fluoro-2-isopropyl-6-(2-methoxypyridin-4-yl)phenyl)carbamoyl) pyridazine-3-sulfonamide], the IC50 in assay [1] (THP IC50, THP-1 cells) was less than 800 nM; in assay [2] it was less than 2500 nM.
As to `COc1cc(-c2ccc3c(c2NC(=O)NS(=O)(=O)c2cnc(N(C)C)cn2)CCC3)ccn1` [Example 40, 5-(Dimethylamino)-N-((5-(2-methoxypyridin-4-yl)-2,3-dihydro-1H-inden-4-yl)carbamoyl)pyrazine-2-sulfonamide], the IC50 in assay [1] (setting [3]) is less than 800 nM; in assay [2] (setting [4]), less than 2500 nM.
For the compound `COc1cc(-c2ccc3c(c2NC(=O)NS(=O)(=O)c2nc(C)cc(C)n2)CCC3)ccn1` [Example 48, N-((5-(2-Methoxypyridin-4-yl)-2,3-dihydro-1H-inden-4-yl)carbamoyl)-4,6-dimethylpyrimidine-2-sulfonamide], the IC50 was less than 800 nM in assay [1] (setting [3]) and less than 2500 nM in assay [2] (setting [4]). The “NLRP3 inhibitory activity (in words)” value in assay [1] is recorded as “highly active”.
For `CN(C)c1cnnc(S(=O)(=O)NC(=O)Nc2c(-c3ccncc3)cc(F)c3c2CCC3)c1` [Example 53, 5-(Dimethylamino)-N-((7-fluoro-5-(pyridin-4-yl)-2,3-dihydro-1H-inden-4-yl)carbamoyl) pyridazine-3-sulfonamide], the figures for the IC50 in assay [1] (setting [3]) and in assay [2] (setting [4]) were less than 800 nM and less than 2500 nM, respectively.
As to `COc1cc(-c2ccc3c(c2NC(=O)NS(=O)(=O)c2cc(N(C)C)cnn2)CCC3)ccn1` [Example 52, 5-(Dimethylamino)-N-((5-(2-methoxypyridin-4-yl)-2,3-dihydro-1H-inden-4-yl)carbamoyl) pyridazine-3-sulfonamide], the IC50 in assay [1] (setting [3]) was less than 800 nM; in assay [2] (setting [4]), less than 2500 nM.
The like results for `Nc1ncc(S(=O)(=O)NC(=O)Nc2c3c(cc4c2CCC4)CCC3)cn1` [Example 9, 2-Amino-N-((1,2,3,5,6,7-hexahydro-s-indacen-4-yl)carbamoyl) pyrimidine-5-sulfonamide, Potassium Salt] were, in that order, less than 2000 nM and less than 2500 nM.
Regarding `CN(C)c1cncc(S(=O)(=O)NC(=O)Nc2c(-c3ccncc3)cc(F)c3c2CCC3)n1` [Example 37, 6-(Dimethylamino)-N-((7-fluoro-5-(pyridin-4-yl)-2,3-dihydro-1H-inden-4-yl)carbamoyl)pyrazine-2-sulfonamide], the IC50 in assay [1] (setting [3]) is less than 800 nM; in assay [2] (setting [4]), less than 2500 nM.
Turning to `Cc1cc(C)nc(S(=O)(=O)NC(=O)Nc2c(-c3ccnc(C#N)c3)cc(F)cc2C(C)C)n1` [Example 46, N-((2-(2-Cyanopyridin-4-yl)-4-fluoro-6-isopropylphenyl)carbamoyl)-4,6-dimethylpyrimidine-2-sulfonamide], the results for the IC50 in assay [1] (setting [3]) and in assay [2] (setting [4]) were less than 800 nM and less than 2500 nM, respectively. The “NLRP3 inhibitory activity (in words)” value in assay [1] was “highly active”.
Take `CC(C)c1cc(F)cc(-c2ccnc(C#N)c2)c1NC(=O)NS(=O)(=O)c1cnc(N(C)C)cn1` [Example 38, N-((2-(2-Cyanopyridin-4-yl)-4-fluoro-6-isopropylphenyl)carbamoyl)-5-(dimethylamino)pyrazine-2-sulfonamide]: the IC50 in assay [1] (setting [3]) is less than 800 nM; in assay [2] (setting [4]) it was less than 2500 nM.
With `Cc1ccnc(S(=O)(=O)NC(=O)Nc2c3c(cc4c2CCC4)CCC3)n1` [Example 17, N-((1,2,3,5,6,7-Hexahydro-s-indacen-4-yl)carbamoyl)-4-methyl pyrimidine-2-sulfonamide, Potassium Salt], the IC50 was less than 1200 nM in assay [1] (setting [3]) and less than 5000 nM in assay [2] (setting [4]).
For `CN(C)c1cncc(S(=O)(=O)NC(=O)Nc2c3c(cc4c2CCC4)CCC3)n1` [Example 27, 6-(Dimethylamino)-N-((1,2,3,5,6,7-hexahydro-s-indacen-4-yl)carbamoyl)pyrazine-2-sulfonamide, Potassium Salt] the same measures were less than 800 nM and less than 7500 nM.
The like results for `COc1nccnc1S(=O)(=O)NC(=O)Nc1c2c(cc3c1CCC3)CCC2` [Example 8, N-((1,2,3,5,6,7-Hexahydro-s-indacen-4-yl)carbamoyl)-3-methoxypyrazine-2-sulfonamide, Potassium Salt] were, in that order, less than 800 nM and less than 5000 nM.
For `COc1cc(-c2ccc3c(c2NC(=O)NS(=O)(=O)c2ccnc(CN(C)C)c2)CCC3)ccn1` [Example 59, 2-((Dimethylamino)methyl)-N-((5-(2-methoxypyridin-4-yl)-2,3-dihydro-1H-inden-4-yl)carbamoyl)pyridine-4-sulfonamide, sodium salt] the same measures were less than 800 nM and less than 2500 nM.
As for `COc1cc(-c2ccc3c(c2NC(=O)NS(=O)(=O)c2ccc(CN(C)C)nc2)CCC3)ccn1` [Example 58, 6-((Dimethylamino)methyl)-N-((5-(2-methoxypyridin-4-yl)-2,3-dihydro-1H-inden-4-yl)carbamoyl)pyridine-3-sulfonamide], the results for the IC50 in assay [1] (setting [3]) and in assay [2] (setting [4]) were less than 800 nM and less than 2500 nM, respectively.
The like results for `CC(C)c1cccc(C(C)C)c1NC(=O)NS(=O)(=O)c1cccnn1` [Example 7, N-((2,6-Diisopropylphenyl)carbamoyl)pyridazine-3-sulfonamide, Sodium Salt] were, in that order, less than 10000 nM and less than 2500 nM.
As for `Cc1cc(C)nc(S(=O)(=O)NC(=O)Nc2c(-c3ccncc3)cc(F)c3c2CCC3)n1` [Example 49, N-((7-Fluoro-5-(pyridin-4-yl)-2,3-dihydro-1H-inden-4-yl)carbamoyl)-4,6-dimethylpyrimidine-2-sulfonamide], the figures for the IC50 in assay [1] (setting [3]) and in assay [2] (setting [4]) were less than 800 nM and less than 2500 nM, respectively. Further, the “NLRP3 inhibitory activity (in words)” value in assay [1] is “highly active”.
Take `COc1cc(-c2ccc3c(c2NC(=O)NS(=O)(=O)c2ccnc(C(C)C)c2)CCC3)ccn1` [Example 60, 2-Isopropyl-N-((5-(2-methoxypyridin-4-yl)-2,3-dihydro-1H-inden-4-yl)carbamoyl)pyridine-4-sulfonamide, sodium salt]: the figures for the IC50 in assay [1] (setting [3]) and in assay [2] (setting [4]) were less than 800 nM and less than 2500 nM, respectively.
`CC(C)c1cc(S(=O)(=O)NC(=O)Nc2c3c(cc4c2CCC4)CCC3)ccn1` [Example 57, N-((1,2,3,5,6,7-Hexahydro-s-indacen-4-yl)carbamoyl)-2-isopropylpyridine-4-sulfonamide, Sodium Salt]: in assay [1] (setting [3]), the IC50 was less than 800 nM.
On the same count and under the same terms, in the case of `COc1cc(-c2ccc3c(c2NC(=O)NS(=O)(=O)c2nccnc2C(F)F)CCC3)ccn1` [Example 44, 3-(Difluoromethyl)-N-((5-(2-methoxypyridin-4-yl)-2,3-dihydro-1H-inden-4-yl)carbamoyl)pyrazine-2-sulfonamide] it was less than 1200 nM; in that of `O=C(Nc1c2c(cc3c1CCC3)CCC2)NS(=O)(=O)c1nccnc1C(F)F` [Example 14, 3-(Difluoromethyl)-N-((1,2,3,5,6,7-hexahydro-s-indacen-4-yl)carbamoyl)pyrazine-2-sulfonamide, potassium salt], less than 2000 nM; in that of `CN(C)c1ccc(S(=O)(=O)NC(=O)Nc2c3c(cc4c2CCC4)CCC3)nn1` [Example 13, 6-(Dimethylamino)-N-((1,2,3,5,6,7-hexahydro-s-indacen-4-yl)carbamoyl)pyridazine-3-sulfonamide, potassium salt], less than 1600 nM.
Take `COc1cc(-c2ccc3c(c2NC(=O)NS(=O)(=O)c2cncc(N(C)C)n2)CCC3)ccn1` [Example 36, 6-(Dimethylamino)-N-((5-(2-methoxypyridin-4-yl)-2,3-dihydro-1H-inden-4-yl)carbamoyl)pyrazine-2-sulfonamide]: in assay [1] (setting [3]), the half-maximal inhibitory concentration (IC50) was less than 800 nM.
On the same count and under the same terms, to `COc1cc(S(=O)(=O)NC(=O)Nc2c3c(cc4c2CCC4)CCC3)ncn1` [Example 19, N-((1,2,3,5,6,7-Hexahydro-s-indacen-4-yl)carbamoyl)-6-methoxypyrimidine-4-sulfonamide, Potassium Salt] belongs less than 800 nM.
